In patent publication US20150374718A1, “Zhankuic Acid A and Analogs thereof and Their Use as an Anti-Inflammatory Agent” (National Cheng Kung University, priority 2014, published 2015):
Where two headings read alike, the source gives them in different places.

Tested on: LPS-induced TNF-α expression
Test: LPS-induced TNF-α expression in murine peritoneal macrophages (ELISA)
Type: cell-based
Settings: Mus musculus, Peritoneal macrophage
Method: C57BL/6 mice were injected intraperitoneally with 3% thioglycollate, and their peritoneal macrophages were collected 72 h later. Macrophages were cultured in DMEM supplemented with 10% FBS and 50 μg/mL gentamicin at 37° C. in a humidified atmosphere of 5% CO2. […] Cell lysates were subjected to SDS-PAGE for detection of COX2 and iNOS expression. The presence of nitrite (a metabolite of NO) in the culture medium was analyzed by the Griess assay (Sigma-Aldrich), as previously described (16).

[1] = 2 h, read-out: Inhibition of 2 h-TNF-α (%)
[2] = 4 h, read-out: Inhibition of 4 h-TNF-α (%)

Row | Structure (SMILES) | inhibition at 10 µM [1] | inhibition at 10 µM [2]
1 | C=C(CC[C@@H](C)[C@H]1CC[C@H]2C3=C(C(=O)[C@H](O)[C@]12C)[C@@]1(C)CC[C@@H](O)[C@@H](C)[C@@H]1CC3=O)C(C)C(=O)O (stereo partly shown) [No. 4, Zhankuic acid C] | 67.5% | 88.8%
2 | C=C(CC[C@@H](C)[C@H]1CC[C@H]2C3=C(C(=O)C[C@]12C)[C@@]1(C)CC[C@@H](O)[C@@H](C)C1C[C@@H]3O)C(C)C(=O)O (stereo partly shown) [No. 13, Camphoratin B] | 40.7% | 87%
3 | C=C(CC[C@@H](C)[C@H]1CC[C@@]2(O)C3=C(C(=O)C[C@]12C)[C@@]1(C)CCC(=O)[C@@H](C)C1C[C@@H]3O)C(C)C(=O)O (stereo partly shown) [No. 14, Camphoratin D] | 65.8% | 81.7%
4 | C=C(CC[C@@H](C)[C@H]1CCC2C3=C(C(=O)C[C@@]21C)[C@@]1(C)CCC(=O)[C@@H](C)C1CC3=O)C(C)C(=O)OCC (stereo partly shown) [No. 6, Zhankuic acid D] | 67.1% | 54.8%
5 | C=C(CC[C@@H](C)[C@H]1CC[C@H]2C3=C(C(=O)C[C@]12C)[C@@]1(C)CCC(=O)[C@@H](C)[C@@H]1CC3=O)C(C)C(=O)OC (stereo partly shown) [No. 2, Zhankuic acid A methyl ester] | 51.6% | 80.3%
6 | CC(C)[C@@H](C)/C=C/[C@@H](C)[C@H]1CC[C@@H]2[C@]1(C)CC[C@H]1[C@]23C=C[C@]2(C[C@@H](O)CC[C@]12C)OO3 [No. 25, Ergosterol peroxide] | < 0% | < 0%
7 | C=C(CC[C@@H](C)[C@H]1CCC2C3=C(C(=O)[C@H](O)[C@@]21C)[C@@]1(C)CCC(=O)[C@@H](C)C1CC3=O)C(C)C(=O)OC (stereo partly shown) [No. 22, Camphoratin N] | 58.3% | 89%
8 | C=C(CC[C@@H](C)[C@H]1CCC2C3=C(C(=O)C[C@@]21C)[C@@]1(C)CC[C@@H](O)[C@@H](C)C1CC3=O)C(C)C(=O)O (stereo partly shown) [No. 3, Zhankuic acid B] | 68.9% | 88.6%
9 | C=C(CC[C@@H](C)[C@H]1CC[C@H]2C3=C(C(=O)C[C@]12C)[C@@]1(C)CCC(=O)[C@@H](C)[C@@H]1CC3)C(C)C(=O)O (stereo partly shown) [No. 7, Antcin A] | 40.6% | 90.7%
10 | C=C(CC[C@@H](C)[C@H]1CC[C@@H]2C3=C(C(=O)C[C@@]21C)[C@@]1(C)CCC(=O)[C@@H](C)C1CC3)C(C)C(=O)OC (stereo partly shown) [No. 19, Camphoratin J] | 73.4% | 90.2%
11 | CC(=O)CC[C@@H](C)[C@H]1CCC2C3=C(C(=O)C[C@@]21C)[C@@]1(C)CCC(=O)[C@@H](C)C1CC3=O (stereo partly shown) [No. 21, Camphoratin L] | 73.9% | 30.6%
12 | C=C(CC[C@@H](C)[C@H]1CC[C@H]2C3=C(C(=O)[C@H](O)[C@]12C)[C@@]1(C)CC[C@@H](O)[C@@H](C)[C@@H]1CC3=O)C(C)C(=O)OC (stereo partly shown) [No. 27, Methyl antcinate H] | 79.8% | 91.5%
13 | C=C(CC[C@@H](C)[C@H]1CC[C@H]2C3=C(C(=O)[C@H](O)[C@]12C)[C@@]1(C)CC[C@@H](OC=O)[C@@H](C)[C@@H]1CC3=O)C(C)C(=O)O (stereo partly shown) [No. 5, Zhankuic acid C 3-O-formate] | 1.62% | 45.3%
14 | C=C(CC[C@@H](C)[C@H]1CC[C@H]2C3=C(C(=O)[C@H](O)[C@]12C)[C@@]1(C)CC[C@@H](O)[C@@H](C)C1C[C@@H]3O)C(C)C(=O)O (stereo partly shown) [No. 12, Camphoratin A] | 22.8% | 29.9%
15 | C=C(CCC(C)C1CCC2C3=C(C(=O)C[C@@]21C)[C@@]1(C)CCC(=O)[C@@H](C)C1CC3=O)C(C)C(=O)O (stereo in doubt) [No. 1, Zhankuic acid A] | 42.4% | 85.6%
16 | C=C(CC[C@@H](C)[C@H]1CCC2C3=C(C(=O)C[C@@]21C)[C@@]1(C)CCC(=O)[C@@H](C)C1C[C@@H]3O)C(C)C(=O)OC (stereo partly shown) [No. 16, Camphoratin F] | 38.2% | 80.2%
17 | C=C(CC[C@@H](C)[C@H]1CC[C@H]2C3=C(C(=O)C[C@]12C)[C@@]1(C)CCC(=O)[C@@H](C)[C@@H]1CC3)C(C)C(=O)OC (stereo partly drawn) [No. 26, Methyl-4α-methylergost-8,24(28)-diene-3,11-dion-26-oate] | 49.3% | < 0%
18 | C=C(CC[C@@H](C)[C@H]1CCC2C3=C(C(=O)C[C@@]21C)[C@@]1(C)CC[C@@H](O)[C@@H](C)C1CC3=O)C(C)C(=O)OC (stereo partly shown) [No. 15, Camphoratin E] | 78% | 89.4%
19 | C=C(CC[C@@H](C)[C@H]1CC[C@H]2C3=C(C(=O)[C@H](O)[C@]12C)[C@@]1(C)CC[C@@H](OC=O)[C@@H](C)[C@@H]1CC3)C(C)C(=O)O (stereo partly shown) [No. 11, Antcin M 3-O-formate] | < 0% | 88.3%
20 | C=C(CC[C@@H](C)[C@H]1CC[C@H]2C3=C(C(=O)C[C@]12C)[C@@]1(C)CC[C@@H](O)[C@](C)(O)[C@@H]1C[C@@H]3O)C(C)C(=O)O (stereo partly shown) [No. 10, Antcin K] | 49.4% | 88.5%
21 | C=C(CC[C@@H](C)[C@H]1CCC2C3=C(C(=O)C[C@@]21C)[C@@]1(C)CCC(=O)[C@@H](C)C1CC3)C(C)C(=O)OC (stereo partly shown) [No. 8, Antcin A methyl ester] | 19.4% | 85.2%
22 | C=C(CC[C@@H](C)[C@H]1CCC2C3=C(C(=O)C[C@@]21C)[C@@]1(C)CCC(=O)[C@@H](C)C1C[C@H]3O)C(C)C(=O)O (stereo partly shown) [No. 17, Camphoratin G] | 68.8% | 22.5%
23 | C=C(CC[C@@H](C)[C@H]1CCC2C3=C(C(=O)C[C@@]21C)[C@@]1(C)CCC(=O)[C@@H](C)C1C[C@@H]3O)C(C)C(=O)O (stereo partly shown) [No. 9, Antcin C] | 43.6% | 43.1%
